The structures appear in SMILES notation.

human factor IXa, sequence (P00740 227-461): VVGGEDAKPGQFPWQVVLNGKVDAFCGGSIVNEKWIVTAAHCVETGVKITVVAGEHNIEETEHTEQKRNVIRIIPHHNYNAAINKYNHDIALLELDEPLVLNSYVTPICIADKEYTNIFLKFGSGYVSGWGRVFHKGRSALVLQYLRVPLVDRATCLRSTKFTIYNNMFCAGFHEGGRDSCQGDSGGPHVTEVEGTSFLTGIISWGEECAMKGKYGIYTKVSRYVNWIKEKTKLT
human factor IXa, sequence (P00740 47-191 partner): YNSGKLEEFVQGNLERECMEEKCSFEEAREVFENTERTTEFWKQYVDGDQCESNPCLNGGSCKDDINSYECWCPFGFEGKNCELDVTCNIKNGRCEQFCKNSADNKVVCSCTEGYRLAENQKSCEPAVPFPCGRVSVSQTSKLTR

The assay has as its target human factor IXa (Homo sapiens (Human), UniProt P00740). The experiment in a line: Determination of Inhibitory Activity Against Factor IXa. The format is biochemical. The following applies: Factor IXa enzyme assay human; read-out: FIXa IC50. As for the experimental part:
Inhibitory activity against factor IXa was tested using the substrate SPECTROFLUOR FIXa (american diagnostica inc.; 500 West Avenue, Stamford, Conn. 06902 USA; Pr. No. 299F) and human factor IXa (american diagnostica inc.; Pr. No. 449b). Test substances were dissolved in buffer A (50 mM α,α,α-tris(hydroxymethyl) methylamine (Tris), 100 mM NaCl, 5 mM CaCl2, 15% (v/v) ethylene glycol, pH 8.0) were mixed with factor IXa (0.1 μg/ml final concentration). The enzyme reaction was started by addition of SPECTROFLUOR FIXa (100 μM final concentration). After incubation for 60 minutes at room temperature, the reaction was stopped by the addition of 20% (v/v) acetic acid solution, and then the fluorescence value was measured (Excitation Wavelength: 355 nm, Emission Wavelength; 460 nm) in a microtiter plate reader (ARVO 1420 Multilabel Counter; PerkinElmer).
The IC50 was calculated from a dilution series of the test substance with the aid of the software, Symyx Assay Explorer (Symyx Technologies, Inc.).
Consider `Nc1noc2c(N3CC[C@@H](NC(=O)c4ccc(-c5ccc(=O)n(C(F)F)c5)cc4Cl)C3)ncc(Cl)c12` [Example 37, (R)—N-(1-(3-Amino-4-chloroisoxazolo[5,4-c]pyridin-7-yl)pyrrolidin-3-yl)-2-chloro-4-(1-(difluoromethyl)-6-oxo-1,6-dihydropyridin-3-yl)benzamide], for which the IC50 (commonly the concentration that gives 50% inhibition) was at most 100 nM.
Take `Nc1nsc2c(N3CCC(NC(=O)c4c(Cl)cc(-n5cnnc5)cc4Cl)C3)cccc12` (stereo not drawn) [Example 4, N-(1-(3-Aminobenzo[d]isothiazol-7-yl)pyrrolidin-3-yl)-2,6-dichloro-4-(4H-1,2,4-triazol-4-yl)benzamide]: the IC50 was 100 to 1000 nM.
With `Nc1noc2c(N3C[C@H](NC(=O)c4c(Cl)cc(-n5cnnc5)cc4Cl)[C@@H](O)C3)cccc12` (relative stereo) [Example 8, N-((3S*,4S*)-1-(3-Aminobenzo[d]isoxazol-7-yl)-4-hydroxypyrrolidin-3-yl)-2,6-dichloro-4-(4H-1,2,4-triazol-4-yl)benzamide], the 50% inhibitory concentration (IC50) was at most 100 nM.
As for `Cc1cc(N2CC[C@@H](NC(=O)c3ccc(-n4cnnc4)cc3Cl)C2)c2onc(N)c2c1Cl` [Example 12, (R)—N-(1-(3-Amino-4-chloro-5-methylbenzo[d]isoxazol-7-yl)pyrrolidin-3-yl)-2-chloro-4-(4H-1,2,4-triazol-4-yl)benzamide], the figure is at most 100 nM.
For `Nc1noc2c(N3CC[C@@H](NC(=O)c4ccc(-n5cnc6cncnc65)cc4Cl)C3)ncc(Cl)c12` [Example 48, (R)—N-(1-(3-Amino-4-chloroisoxazolo[5,4-c]pyridin-7-yl)pyrrolidin-3-yl)-2-chloro-4-(9H-purin-9-yl)benzamide], the IC50 is at most 100 nM.
On to `Nc1noc2c(N3CC[C@@H](NC(=O)c4ccc(-n5cnnc5)cc4Cl)C3)cc(Cl)cc12` [Example 10, (R)—N-(1-(3-Amino-5-chlorobenzo[d]isoxazol-7-yl)pyrrolidin-3-yl)-2-chloro-4-(4H-1,2,4-triazol-4-yl)benzamide], for which the IC50 is at most 100 nM.
As to `C[C@H]1CN(c2cccc3c(N)noc23)C[C@]1(C)NC(=O)c1c(Cl)cc(-n2cnnc2)cc1Cl` (relative stereo) [Example 7, N-((3R*,4S*)-1-(3-Aminobenzo[d]isoxazol-7-yl)-3,4-dimethylpyrrolidin-3-yl)-2,6-dichloro-4-(4H-1,2,4-triazol-4-yl)benzamide], the IC50 is at most 100 nM.
On to `Cn1cc(-c2ccc(C(=O)N[C@@H]3CCN(c4ncc(Cl)c5c(N)noc45)C3)c(Cl)c2)cnc1=O` [Example 44, (R)—N-(1-(3-Amino-4-chloroisoxazolo[5,4-c]pyridin-7-yl)pyrrolidin-3-yl)-2-chloro-4-(1-methyl-2-oxo-1,2-dihydropyrimidin-5-yl)benzamide], for which the IC50 was at most 100 nM.
The same measure for `Nc1noc2c(N3CC[C@@H](NC(=O)c4ccc(-c5cncc(CCO)c5)cc4Cl)C3)ncc(Cl)c12` [Example 31, (R)—N-(1-(3-Amino-4-chloroisoxazolo[5,4-c]pyridin-7-yl)pyrrolidin-3-yl)-2-chloro-4-(5-(2-hydroxyethyl)pyridin-3-yl)benzamide]: at most 100 nM; for `N#Cc1ncc(-c2ccc(C(=O)N[C@@H]3CCN(c4ncc(Cl)c5c(N)noc45)C3)c(Cl)c2)cn1` [Example 22, (R)—N-(1-(3-Amino-4-chloroisoxazolo[5,4-c]pyridin-7-yl)pyrrolidin-3-yl)-2-chloro-4-(2-cyanopyrimidin-5-yl)benzamide]: at most 100 nM.
For `COc1ncc(-c2ccc(C(=O)N[C@@H]3CCN(c4ncc(Cl)c5c(N)noc45)C3)c(Cl)c2)cn1` [Example 21, (R)—N-(1-(3-Amino-4-chloroisoxazolo[5,4-c]pyridin-7-yl)pyrrolidin-3-yl)-2-chloro-4-(2-methoxypyrimidin-5-yl)benzamide], the IC50 was at most 100 nM.
Take `Nc1noc2c(N3CC[C@@H](NC(=O)c4ccc(-c5ccc6nncn6c5)cc4Cl)C3)ncc(Cl)c12` [Example 38, (R)-4-([1,2,4]Triazolo[4,3-a]pyridin-6-yl)-N-(1-(3-amino-4-chloroisoxazolo[5,4-c]pyridin-7-yl)pyrrolidin-3-yl)-2-chlorobenzamide]: the IC50 was at most 100 nM.
The same measure for `Nc1noc2c(N3CC[C@@H](NC(=O)c4ccc(-c5cncnc5)cc4Cl)C3)ncc(Cl)c12` [Example 20, (R)—N-(1-(3-Amino-4-chloroisoxazolo[5,4-c]pyridin-7-yl)pyrrolidin-3-yl)-2-chloro-4-(pyrimidin-5-yl)benzamide]: at most 100 nM.
The same measure for `Cn1ncn(-c2ccc(C(=O)N[C@@H]3CCN(c4ncc(Cl)c5c(N)noc45)C3)c(Cl)c2)c1=O` [Example 45, (R)—N-(1-(3-Amino-4-chloroisoxazolo[5,4-c]pyridin-7-yl)pyrrolidin-3-yl)-2-chloro-4-(1-methyl-5-oxo-1,5-dihydro-4H-1,2,4-triazol-4-yl)benzamide]: at most 100 nM; for `Nc1noc2c(N3CC[C@@H](NC(=O)c4ccc(-n5cncn5)cc4Cl)C3)ncc(Cl)c12` [Example 24, (R)—N-(1-(3-Amino-4-chloroisoxazolo[5,4-c]pyridin-7-yl)pyrrolidin-3-yl)-2-chloro-4-(1H-1,2,4-triazol-1-yl)benzamide]: at most 100 nM; for `Nc1noc2c(N3CC[C@@H](NC(=O)c4ccc(-n5cncn5)cc4F)C3)ccc(Cl)c12` [Example 18, (R)—N-(1-(3-Amino-4-chlorobenzo[d]isoxazol-7-yl)pyrrolidin-3-yl)-2-fluoro-4-(1H-1,2,4-triazol-1-yl)benzamide]: 100 to 1000 nM.
As for `Cc1ncn(-c2ccc(C(=O)N[C@@H]3CCN(c4ncc(Cl)c5c(N)noc45)C3)c(Cl)c2)n1` [Example 11, (R)—N-(1-(3-Amino-4-chloroisoxazolo[5,4-c]pyridin-7-yl)pyrrolidin-3-yl)-2-chloro-4-(3-methyl-1H-1,2,4-triazol-1-yl)benzamide], the IC50 was at most 100 nM.
As for `Nc1noc2c(N3CC[C@@H](NC(=O)c4ccc(-n5cnc(C6CC6)n5)cc4Cl)C3)cc(Cl)cc12` [Example 17, (R)—N-(1-(3-Amino-5-chlorobenzo[d]isoxazol-7-yl)pyrrolidin-3-yl)-2-chloro-4-(3-cyclopropyl-1H-1,2,4-triazol-1-yl)benzamide], the figure is at most 100 nM; as for `Nc1noc2c(N3CC[C@@H](NC(=O)c4ccc(-c5cncc(CO)c5)cc4Cl)C3)ccc(Cl)c12` [Example 25, (R)—N-(1-(3-Amino-4-chlorobenzo[d]isoxazol-7-yl)pyrrolidin-3-yl)-2-chloro-4-(5-(hydroxymethyl)pyridin-3-yl)benzamide], at most 100 nM.
On to `Nc1noc2c(N3CC[C@@H](NC(=O)c4ccc(-n5cnc(CCO)n5)cc4Cl)C3)ccc(Cl)c12` [Example 23, (R)—N-(1-(3-Amino-4-chlorobenzo[d]isoxazol-7-yl)pyrrolidin-3-yl)-2-chloro-4-(3-(2-hydroxyethyl)-1H-1,2,4-triazol-1-yl)benzamide], for which the IC50 was at most 100 nM.
Consider `Cc1ncn(-c2ccc(C(=O)NC3(C)CCN(c4cc(Cl)cc5c(N)noc45)C3)c(Cl)c2)n1` (stereo not drawn) [Example 15, N-(1-(3-Amino-5-chlorobenzo[d]isoxazol-7-yl)-3-methylpyrrolidin-3-yl)-2-chloro-4-(3-methyl-1H-1,2,4-triazol-1-yl)benzamide], for which the IC50 was at most 100 nM.
Consider `Nc1noc2c(N3CC[C@@H](NC(=O)c4ccc(-n5cnn(CCO)c5=O)cc4Cl)C3)ncc(Cl)c12` [Example 47, (R)—N-(1-(3-Amino-4-chloroisoxazolo[5,4-c]pyridin-7-yl)pyrrolidin-3-yl)-2-chloro-4-(1-(2-hydroxyethyl)-5-oxo-1,5-dihydro-4H-1,2,4-triazol-4-yl)benzamide], for which the IC50 is at most 100 nM.
For the molecule `Cc1cc2c(N)noc2c(N2CC[C@@H](NC(=O)c3c(Cl)cc(-n4cnn(C)c4=O)cc3Cl)C2)n1` [Example 49, (R)—N-(1-(3-Amino-5-methylisoxazolo[5,4-c]pyridin-7-yl)pyrrolidin-3-yl)-2,6-dichloro-4-(1-methyl-5-oxo-1,5-dihydro-4H-1,2,4-triazol-4-yl)benzamide], the IC50 was at most 100 nM.
For `Nc1noc2c(N3CC[C@@H](NC(=O)c4ccc(-c5ccnc(CO)c5)cc4Cl)C3)ccc(Cl)c12` [Example 53, (R)—N-(1-(3-Amino-4-chlorobenzo[d]isoxazol-7-yl)pyrrolidin-3-yl)-2-chloro-4-(2-(hydroxymethyl)pyridin-4-yl)benzamide], the IC50 was at most 100 nM.
For the molecule `Nc1noc2c(N3CC[C@@H](NC(=O)c4ccc(-n5cnc6ncccc65)cc4Cl)C3)ncc(Cl)c12` [Example 32, (R)—N-(1-(3-Amino-4-chloroisoxazolo[5,4-c]pyridin-7-yl)pyrrolidin-3-yl)-2-chloro-4-(1H-imidazo[4,5-b]pyridin-1-yl)benzamide], the IC50 is at most 100 nM.
As to `Cc1cc(-n2cncn2)ccc1C(=O)N[C@@H]1CCN(c2ccc(Cl)c3c(N)noc23)C1` [Example 19, (R)—N-(1-(3-Amino-4-chlorobenzo[d]isoxazol-7-yl)pyrrolidin-3-yl)-2-methyl-4-(1H-1,2,4-triazol-1-yl)benzamide], the IC50 lay within 100 to 1000 nM.
For `Nc1noc2c(N3CC[C@@H](NC(=O)c4ccc(-c5ccnnc5)cc4Cl)C3)ncc(Cl)c12` [Example 30, (R)—N-(1-(3-Amino-4-chloroisoxazolo[5,4-c]pyridin-7-yl)pyrrolidin-3-yl)-2-chloro-4-(pyridazin-4-yl)benzamide], the IC50 is at most 100 nM.

The values are drawn from US9969724B2, “Factor IXa inhibitors” (Merck Sharp & Dohme Corp., priority 2014, dated 2018).
